Results filed as inconclusive are left out.
Test system: Lewis lung carcinoma i.m., BDF1 mice, T/C %
Assay: NCI In Vivo Anticancer Drug Screen. Data for tumor model Lewis Lung Carcinoma (intramuscular) in B6D2F1 (BDF1) mice
Summary of the method: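 Antitumour activity is assessed in transplanted-tumour mice. Endpoint is survival or tumour size, normalised to vehicle-dosed controls (T/C).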

SMILES: COC1=C(N)C(=O)c2nc(-c3nc(C(=O)O)c(C)c(-c4ccc(OC)c(OC)c4O)c3N)ccc2C1=O
- T/C (endpoint: median survival time, dose: 0.02 mg/kg/injection, schedule: Q01DX011 (ip), vehicle: other, higher = longer survival): 105 % of control
- T/C (endpoint: median survival time, dose: 0.02 mg/kg/injection, schedule: Q01DX011 (ip), vehicle: saline, higher = longer survival): 92 % of control
- T/C (endpoint: median survival time, dose: 0.03 mg/kg/injection, schedule: Q01DX009 (ip), vehicle: saline, higher = longer survival): 86 % of control
- T/C (endpoint: median survival time, dose: 0.03 mg/kg/injection, schedule: Q01DX011 (ip), vehicle: saline, higher = longer survival): 96 % of control
- T/C (endpoint: median survival time, dose: 0.05 mg/kg/injection, schedule: Q01DX009 (ip), vehicle: saline, higher = longer survival): 90 % of control
- T/C (endpoint: median survival time, dose: 0.05 mg/kg/injection, schedule: Q01DX011 (ip), vehicle: other, higher = longer survival): 90 % of control
- T/C (endpoint: median survival time, dose: 0.06 mg/kg/injection, schedule: Q01DX011 (ip), vehicle: saline, higher = longer survival): 94 % of control
- T/C (endpoint: median survival time, dose: 0.1 mg/kg/injection, schedule: Q01DX011 (ip), vehicle: other, higher = longer survival): 100 % of control
- T/C (endpoint: median tumor weight (est.), dose: 0.02 mg/kg/injection, schedule: Q01DX011 (ip), vehicle: saline, higher = larger tumour): 72 % of control
- T/C (endpoint: median tumor weight (est.), dose: 0.03 mg/kg/injection, schedule: Q01DX011 (ip), vehicle: saline, higher = larger tumour): 81 % of control
- T/C (endpoint: median tumor weight (est.), dose: 0.06 mg/kg/injection, schedule: Q01DX011 (ip), vehicle: saline, higher = larger tumour): 77 % of control
- T/C (endpoint: median tumor weight (est.), dose: 0.12 mg/kg/injection, schedule: Q01DX011 (ip), vehicle: saline, higher = larger tumour): 55 % of control

SMILES: Clc1ccc2nc(CI)c(CI)nc2c1
- T/C (endpoint: mean tumor weight (est.), dose: 3.12 mg/kg/injection, schedule: Q01DX011 (ip), vehicle: saline with Tween-80, higher = larger tumour): 78 % of control
- T/C (endpoint: mean tumor weight (est.), dose: 6.25 mg/kg/injection, schedule: Q01DX011 (ip), vehicle: saline with Tween-80, higher = larger tumour): 82 % of control
- T/C (endpoint: mean tumor weight (est.), dose: 12.5 mg/kg/injection, schedule: Q01DX011 (ip), vehicle: saline with Tween-80, higher = larger tumour): 89 % of control
- T/C (endpoint: median survival time, dose: 3.12 mg/kg/injection, schedule: Q01DX011 (ip), vehicle: saline with Tween-80, higher = longer survival): 94 % of control
- T/C (endpoint: median survival time, dose: 6.25 mg/kg/injection, schedule: Q01DX011 (ip), vehicle: saline with Tween-80, higher = longer survival): 98 % of control
- T/C (endpoint: median survival time, dose: 12.5 mg/kg/injection, schedule: Q01DX011 (ip), vehicle: saline with Tween-80, higher = longer survival): 88 % of control

SMILES: O=NN(CCCl)C(=O)Nc1ccc(CCCl)cc1
- T/C (endpoint: median survival time, dose: 3.0 mg/kg/injection, schedule: Q07DX003 (ip), vehicle: Klucel (hydroxypropylcellulose) (HPC), higher = longer survival): 110 % of control
- T/C (endpoint: median survival time, dose: 5.0 mg/kg/injection, schedule: Q07DX003 (ip), vehicle: Klucel (hydroxypropylcellulose) (HPC), higher = longer survival): 116 % of control
- T/C (endpoint: median survival time, dose: 8.4 mg/kg/injection, schedule: Q07DX003 (ip), vehicle: Klucel (hydroxypropylcellulose) (HPC), higher = longer survival): 108 % of control
- T/C (endpoint: median survival time, dose: 14.0 mg/kg/injection, schedule: Q07DX003 (ip), vehicle: Klucel (hydroxypropylcellulose) (HPC), higher = longer survival): 116 % of control
- T/C (endpoint: median survival time, dose: 23.0 mg/kg/injection, schedule: Q07DX003 (ip), vehicle: Klucel (hydroxypropylcellulose) (HPC), higher = longer survival): 95 % of control
